The values that follow come from ChEMBL document CHEMBL1136280, “Geraniol-derived 1,2,4-trioxanes with potent in-vivo antimalarial activity” (2003).

SMILES strings stand for the structures.

The test system of the first test is Mus musculus. Nature of the test: Mean survival time calculated for the mice which died during 28 day observation period at the dose of 24 mg/kg/day i.m. To be noted: route intramuscular. Format: functional.
With `C=C(CCC(O)c1ccc(-c2ccccc2)cc1)C1COC2(CCCC2)OO1` (centres undefined), the MST is reported as 11.8.

In the case of `C=C(C)C(O)CCC(=C)C1COC2(OO1)C1CC3CC(C1)CC2C3` (centres undefined), the MST is on record as 12.2.

For another test, the system named is Mus musculus. Nature of the test: Number of survival out of 5 mice on day 28 at the dose of 96 mg/kg/day orally. In kind it is functional. As to conditions: route oral.
`C=C(CCC(O)c1cccc2ccccc12)C1COC2(CCCC2)OO1` (centres undefined) came in with an Activity of 0.

For `CCN(CC)CCCC(C)Nc1ccnc2cc(Cl)ccc12` (centres undefined) [CHLOROQUINE], the Activity came to 4.

Consider `C=C(CCC(O)c1ccc(-c2ccccc2)cc1)C1COC2(CCCC2)OO1` (centres undefined), for which the Activity was 0.

In the case of `C=C(CCC(O)c1ccc(Cl)cc1)C1COC2(CCCC2)OO1` (centres undefined), the Activity came to 0.

In the case of `C=C(CCC(O)c1cccc2ccccc12)C1COC2(OO1)C1CC3CC(C1)CC2C3` (centres undefined), the Activity came to 3.

On to `C=C(CCC(O)c1ccccc1)C1COC2(CCCC2)OO1` (centres undefined), for which the Activity came out at 0.

For a further test, the system named is Mus musculus. Nature of the test: Mean survival time calculated for the mice which died during 28 day observation period at the dose of 96 mg/kg/day orally. In kind it is functional. As to conditions: route oral.
With `C=C(CCC(O)c1cccc2ccccc12)C1COC2(CCCC2)OO1` (centres undefined), the MST is listed as 10.4.

As to `CCN(CC)CCCC(C)Nc1ccnc2cc(Cl)ccc12` (centres undefined) [CHLOROQUINE], the MST is recorded as 20.

Consider `C=C(CCC(O)c1ccc(-c2ccccc2)cc1)C1COC2(CCCC2)OO1` (centres undefined), for which the MST was 16.

With `C=C(CCC(O)c1ccc(Cl)cc1)C1COC2(CCCC2)OO1` (centres undefined), the MST is 7.4.

In the case of `C=C(CCC(O)c1cccc2ccccc12)C1COC2(OO1)C1CC3CC(C1)CC2C3` (centres undefined), the MST is recorded as 17.

For `C=C(CCC(O)c1ccccc1)C1COC2(CCCC2)OO1` (centres undefined), the MST was 8.2.

The next test relates to Mus musculus. Nature of the test: Number of survival out of 5 mice on day 28 at the dose of 24 mg/kg/day i.m. Format: functional. To be noted: route intramuscular.
Compound `C=C(CCC(O)c1ccc(-c2ccccc2)cc1)C1COC2(CCCC2)OO1` (centres undefined) registered an Activity of 0.

For the compound `C=C(C)C(O)CCC(=C)C1COC2(OO1)C1CC3CC(C1)CC2C3` (centres undefined), the Activity turned out to be 0.

The test system of a further test is Mus musculus. Nature of the test: Mean survival time calculated for the mice which died during 28 day observation period at the dose of 48 mg/kg/day orally. In kind it is functional. As to conditions: route oral.
For the compound `CCN(CC)CCCC(C)Nc1ccnc2cc(Cl)ccc12` (centres undefined) [CHLOROQUINE], the MST is on record as 17.6.

With `C=C(CCC(O)c1ccc(-c2ccccc2)cc1)C1COC2(CCCC2)OO1` (centres undefined), the MST is 12.

Take `C=C(CCC(O)c1cccc2ccccc12)C1COC2(OO1)C1CC3CC(C1)CC2C3` (centres undefined): the MST is recorded as 15.57.

The subject of a further test is Mus musculus. Nature of the test: Mean survival time calculated for the mice which died during 28 day observation period at the dose of 96 mg/kg/day i.m. In kind it is functional. To be noted: route intramuscular.
As for `C=C(CCC(O)c1cccc2ccccc12)C1COC2(CCCC2)OO1` (centres undefined), the MST is recorded as 14.75.

In the case of `C=C(CCC(O)c1ccc(-c2ccccc2)cc1)C1COC2(CCCC2)OO1` (centres undefined), the MST is recorded as 17.33.

Turning to `C=C(CCC(O)c1ccc(Cl)cc1)C1COC2(CCCC2)OO1` (centres undefined), the MST was 14.57.

On to `C=C(C)C(O)CCC(=C)C1COC2(OO1)C1CC3CC(C1)CC2C3` (centres undefined), for which the MST is listed as 19.57.

As for `C=C(CCC(O)c1cccc2ccccc12)C1COC2(OO1)C1CC3CC(C1)CC2C3` (centres undefined), the MST is 15.33.

Consider `C=C(CCC(O)c1ccccc1)C1COC2(CCCC2)OO1` (centres undefined), for which the MST is listed as 14.8.

The next test deals with Mus musculus. Nature of the test: In vivo antimalarial activity against Plasmodium yoelii in Swiss mice (Mus musculus) on day 4 at the dose of 24 mg/kg/day intramuscular. Format: functional.
Details: not given
`C=C(CCC(O)c1ccc(-c2ccccc2)cc1)C1COC2(CCCC2)OO1` (centres undefined) yielded a Suppression of 85.2%.

`C=C(C)C(O)CCC(=C)C1COC2(OO1)C1CC3CC(C1)CC2C3` (centres undefined) had a Suppression of 67.7%.

The compound `C=C(CCC(O)c1ccccc1)C1COC2(CCCC2)OO1` (centres undefined) had a Suppression of 67.7%.

In another test the test system is Mus musculus. Nature of the test: In vivo antimalarial activity against Plasmodium yoelii in Swiss mice (Mus musculus) on day 4 at the dose of 48 mg/kg/day orally. In kind it is functional. To be noted: route oral.
Consider `CCN(CC)CCCC(C)Nc1ccnc2cc(Cl)ccc12` (centres undefined) [CHLOROQUINE], for which the Suppression was 100%.

The compound `C=C(CCC(O)c1ccc(-c2ccccc2)cc1)C1COC2(CCCC2)OO1` (centres undefined) gave a Suppression of 94.3%.

Compound `C=C(CCC(O)c1cccc2ccccc12)C1COC2(OO1)C1CC3CC(C1)CC2C3` (centres undefined) yielded a Suppression of 100%.

The next test relates to Mus musculus. Nature of the test: Number of survival out of 5 mice on day 28 at the dose of 48 mg/kg/day orally. In kind it is functional. To be noted: route oral.
`CCN(CC)CCCC(C)Nc1ccnc2cc(Cl)ccc12` (centres undefined) [CHLOROQUINE]: the Activity is listed as 4.

Take `C=C(CCC(O)c1ccc(-c2ccccc2)cc1)C1COC2(CCCC2)OO1` (centres undefined): the Activity is 0.

As to `C=C(CCC(O)c1cccc2ccccc12)C1COC2(OO1)C1CC3CC(C1)CC2C3` (centres undefined), the Activity amounted to 2.

Another test relates to Mus musculus. Nature of the test: In vivo antimalarial activity against Plasmodium yoelii in Swiss mice (Mus musculus) on day 4 at the dose of 48 mg/kg/day intramuscular. In kind it is functional.
Details: not given
Turning to `C=C(CCC(O)c1cccc2ccccc12)C1COC2(CCCC2)OO1` (centres undefined), the Suppression is listed as 93.4%.

Regarding `C=C(CCC(O)c1ccc(-c2ccccc2)cc1)C1COC2(CCCC2)OO1` (centres undefined), the Suppression came to 100%.

The compound `C=C(CCC(O)c1ccc(Cl)cc1)C1COC2(CCCC2)OO1` (centres undefined) yielded a Suppression of 98.4%.

The compound `C=C(C)C(O)CCC(=C)C1COC2(OO1)C1CC3CC(C1)CC2C3` (centres undefined) displayed a Suppression of 100%.

`C=C(CCC(O)c1ccccc1)C1COC2(CCCC2)OO1` (centres undefined) registered a Suppression of 100%.

The test system of the next test is Mus musculus. Nature of the test: Mean survival time calculated for the mice which died during 28 day observation period at the dose of 24 mg/kg/day orally. In kind it is functional. To be noted: route oral.
As to `C=C(CCC(O)c1cccc2ccccc12)C1COC2(OO1)C1CC3CC(C1)CC2C3` (centres undefined), the MST is 10.4.

The next test deals with Mus musculus. Nature of the test: In vivo antimalarial activity against Plasmodium yoelii in Swiss mice (Mus musculus) on day 4 at the dose of 24 mg/kg/day orally. Format: functional. To be noted: route oral.
In turn, `C=C(CCC(O)c1cccc2ccccc12)C1COC2(OO1)C1CC3CC(C1)CC2C3` (centres undefined) gave a Suppression of 87.1%.

The test system of a further test is Mus musculus. Nature of the test: Number of survival out of 5 mice on day 28 at the dose of 48 mg/kg/day i.m. As to conditions: route intramuscular. In kind it is functional.
In the case of `C=C(CCC(O)c1cccc2ccccc12)C1COC2(CCCC2)OO1` (centres undefined), the Activity came out at 0.

`C=C(CCC(O)c1ccc(-c2ccccc2)cc1)C1COC2(CCCC2)OO1` (centres undefined) displayed an Activity of 0.

Compound `C=C(CCC(O)c1ccc(Cl)cc1)C1COC2(CCCC2)OO1` (centres undefined) came in with an Activity of 0.

On to `C=C(C)C(O)CCC(=C)C1COC2(OO1)C1CC3CC(C1)CC2C3` (centres undefined), for which the Activity is 0.

`C=C(CCC(O)c1ccccc1)C1COC2(CCCC2)OO1` (centres undefined) showed an Activity of 0.

The test system of the next test is Mus musculus. Nature of the test: Mean survival time calculated for the mice which died during 28 day observation period at the dose of 48 mg/kg/day i.m. Format: functional. As to conditions: route intramuscular.
On to `C=C(CCC(O)c1cccc2ccccc12)C1COC2(CCCC2)OO1` (centres undefined), for which the MST is 15.75.

Turning to `C=C(CCC(O)c1ccc(-c2ccccc2)cc1)C1COC2(CCCC2)OO1` (centres undefined), the MST was 16.75.

On to `C=C(CCC(O)c1ccc(Cl)cc1)C1COC2(CCCC2)OO1` (centres undefined), for which the MST was 14.57.

As to `C=C(C)C(O)CCC(=C)C1COC2(OO1)C1CC3CC(C1)CC2C3` (centres undefined), the MST is 14.8.

In the case of `C=C(CCC(O)c1ccccc1)C1COC2(CCCC2)OO1` (centres undefined), the MST was 12.6.

For another test, the system named is Mus musculus. Nature of the test: In vivo antimalarial activity against Plasmodium yoelii in Swiss mice (Mus musculus) on day 4 at the dose of 96 mg/kg/day orally. Format: functional. As to conditions: route oral.
Regarding `C=C(CCC(O)c1cccc2ccccc12)C1COC2(CCCC2)OO1` (centres undefined), the Suppression turned out to be 81.3%.

`CCN(CC)CCCC(C)Nc1ccnc2cc(Cl)ccc12` (centres undefined) [CHLOROQUINE] showed a Suppression of 100%.

`C=C(CCC(O)c1ccc(-c2ccccc2)cc1)C1COC2(CCCC2)OO1` (centres undefined) gave a Suppression of 100%.

Take `C=C(CCC(O)c1ccc(Cl)cc1)C1COC2(CCCC2)OO1` (centres undefined): the Suppression amounted to 29.6%.

With `C=C(CCC(O)c1cccc2ccccc12)C1COC2(OO1)C1CC3CC(C1)CC2C3` (centres undefined), the Suppression is recorded as 100%.

The subject of a further test is Mus musculus. Nature of the test: Number of survival out of 5 mice on day 28 at the dose of 96 mg/kg/day i.m. In kind it is functional. As to conditions: route intramuscular.
In turn, `C=C(CCC(O)c1cccc2ccccc12)C1COC2(CCCC2)OO1` (centres undefined) came in with an Activity of 1.

With `C=C(CCC(O)c1ccc(-c2ccccc2)cc1)C1COC2(CCCC2)OO1` (centres undefined), the Activity was determined as 2.

`C=C(CCC(O)c1ccc(Cl)cc1)C1COC2(CCCC2)OO1` (centres undefined): the Activity was determined as 2.

`C=C(C)C(O)CCC(=C)C1COC2(OO1)C1CC3CC(C1)CC2C3` (centres undefined) yielded an Activity of 2.

In turn, `C=C(CCC(O)c1cccc2ccccc12)C1COC2(OO1)C1CC3CC(C1)CC2C3` (centres undefined) showed an Activity of 2.

With `C=C(CCC(O)c1ccccc1)C1COC2(CCCC2)OO1` (centres undefined), the Activity is listed as 2.

Another test concerns Mus musculus. Nature of the test: Number of survival out of 5 mice on day 28 at the dose of 24 mg/kg/day orally. To be noted: route oral. Format: functional.
Compound `C=C(CCC(O)c1cccc2ccccc12)C1COC2(OO1)C1CC3CC(C1)CC2C3` (centres undefined) had an Activity of 0.

A further test has as its system Mus musculus. Nature of the test: In vivo antimalarial activity against Plasmodium yoelii in Swiss mice (Mus musculus) on day 4 at the dose of 96 mg/kg/day intramuscular. Format: functional.
Details: not given
Compound `C=C(CCC(O)c1cccc2ccccc12)C1COC2(CCCC2)OO1` (centres undefined) returned a Suppression of 100%.

Compound `C=C(CCC(O)c1ccc(-c2ccccc2)cc1)C1COC2(CCCC2)OO1` (centres undefined) showed a Suppression of 100%.

For `C=C(CCC(O)c1ccc(Cl)cc1)C1COC2(CCCC2)OO1` (centres undefined), the Suppression is reported as 100%.

In turn, `C=C(C)C(O)CCC(=C)C1COC2(OO1)C1CC3CC(C1)CC2C3` (centres undefined) had a Suppression of 100%.

The compound `C=C(CCC(O)c1cccc2ccccc12)C1COC2(OO1)C1CC3CC(C1)CC2C3` (centres undefined) had a Suppression of 72.13%.

Compound `C=C(CCC(O)c1ccccc1)C1COC2(CCCC2)OO1` (centres undefined) had a Suppression of 100%.
